Patent US10144726B2, “Modulators of the p70S6 kinase for use in the treatment of brain disorders and triple-negative breast cancer” (SENTINEL ONCOLOGY LIMITED, priority 2015, dated 2018)
Structures can show the parent of a compound that is named as a salt. Where two headings read alike, the source gives them in different places.

Tests used:
[1] = Brain and plasma concentrations in an in vivo cassette mouse model; set-up: species or system male CD-1 mice; settings: male, PO cassette, 2.5 mg/kg per compound; for Kp at 3 h: read-out: (d) Brain: Plasma ratio at 3 hours
Description: The compounds of this invention were evaluated in an in vivo cassette mouse model to determine brain and plasma concentrations following oral dosing. This is an industry-standard and recognised means to assess brain penetration of small molecules (for recent literature article, refer to In vitro permeability analysis, pharmacokinetic and brain distribution study in mice of imperatorin, isoimperatorin and cnidilin in Radix Angelicae Dahuricae, Fitoterapia, Volume 85, March 2013 , Pages 144-153). It is also recognised that higher brain concentrations (and higher ratios of brain: plasma concentration) lead to greater exposure in the brain—this is clearly advantageous if the brain is the site of action.
For a single cassette study, male CD-1 mice were used (n=3 per timepoint, two timepoints: 1.0 hr and 3.0 hr).
5 compounds were dosed PO per cassette (dose level 2.5 mg/kg per compound, dose conc. 0.25 mg/ml, dose volume 10.0 ml/kg).
Formulation used to solubilize compounds: 10% DMSO/90% hydroxypropyl-β-cyclodextrin (20% w/v aqueous)
Sampling was terminal and plasma and brain matrices were generated. To prepare plasma samples, protein was precipitated using acetonitrile. To prepare brain samples, homogenisation and protein precipitation was performed with acetonitrile. Samples were analysed using HPLC-TOF MS using electrospray ionisation.

MCF-7 cells = assay: MCF-7 proliferation assay (Alamar blue, 72 h); type: cell-based; settings: Homo sapiens, MCF7, 72 h; read-out: (c) MCF-7 proliferation IC50
Description: The following assay was used to determine the ability of test compounds to inhibit cell growth.
The following protocol was used: • 1) MCF-7 cells were seeded in 96-well plates at 5000 cells per well and allowed to adhere overnight prior to addition of compound or vehicle control. • 2) Test compounds were prepared from 10 mM DMSO stocks to give a final concentration range of 100 μM, 30 μM, 10 μM, 3 μM, 1 μM, 0.3 μM, 0.1 μM, 0.03 μM, 0.01 μM and vehicle control. The DMSO content was constant at 1%. • 3) Test compounds were incubated with the cells for 72 h at 37° C. 5% CO2 in a humidified atmosphere. • 4) Alamar blue 10% (v/v) was then added and incubated for a further 6 h, and fluorescent product detected using the BMG FLUOstar plate reader. • 5) Data were analysed using a 4-parameter logistic equation in GraphPad Prism.

[2] = test system: phosphorylation of S6 Ser235/236 in MCF-7 cells; assay: MCF-7 pS6 ELISA (phosphorylation of S6 Ser235/236); type: cell-based; settings: Homo sapiens, MCF7; for IC50: S6 Ser235/236, 1% FBS, 2 h, read-out: (b) MCF-7 pS6 ELISA IC50
Description: The following assay provides IC50 values for inhibition of P70S6K activity in a whole cell assay by determining effects on the phosphorylation of S6^Ser235/236 in MCF-7 cells by ELISA.
The following protocol was used: • 1) MCF-7 cells were seeded in 96-well plates at a density of 7000 cells per well and allowed to adhere for 6 h in media containing 10% FBS. • 2) The full serum media was replaced and cells incubated overnight in media containing 1% FBS, prior to addition of test compounds. • 3) Test compounds were prepared from 10 mM DMSO stocks to give final concentration ranges as indicated on graphs. DMSO was constant at a final concentration of 1%. • 4) Test compounds were incubated with cells in duplicate for 2 h at 37° C/5% CO2 in a humidified atmosphere. • 5) The media was removed and cells were lysed by freeze-thawing in cell lysis buffer. • 6) Detection of phosphorylated S6Ser235/236 was then carried out using a PathScan ELISA kit (Cell Signaling Technology #7205). • 7) Lysates were diluted 1:1 with sample diluent before being applied to wells coated with an antibody against phosphorylated-S6 protein. • 8) The ELISA was then performed as stated in the manufacturers' instructions. • 9) The raw data were normalised to control values and analysed using a 4-parameter logistic equation in GraphPad Prism.

p70S6K (h) = p70S6K (h) (Homo sapiens, UniProt P23443); assay: Determination of p70S6 inhibitory activity (radiometric kinase assay); type: biochemical; settings: read-out: (a) p70S6K1 IC50
Chain of p70S6K (h) (P23443 whole entry): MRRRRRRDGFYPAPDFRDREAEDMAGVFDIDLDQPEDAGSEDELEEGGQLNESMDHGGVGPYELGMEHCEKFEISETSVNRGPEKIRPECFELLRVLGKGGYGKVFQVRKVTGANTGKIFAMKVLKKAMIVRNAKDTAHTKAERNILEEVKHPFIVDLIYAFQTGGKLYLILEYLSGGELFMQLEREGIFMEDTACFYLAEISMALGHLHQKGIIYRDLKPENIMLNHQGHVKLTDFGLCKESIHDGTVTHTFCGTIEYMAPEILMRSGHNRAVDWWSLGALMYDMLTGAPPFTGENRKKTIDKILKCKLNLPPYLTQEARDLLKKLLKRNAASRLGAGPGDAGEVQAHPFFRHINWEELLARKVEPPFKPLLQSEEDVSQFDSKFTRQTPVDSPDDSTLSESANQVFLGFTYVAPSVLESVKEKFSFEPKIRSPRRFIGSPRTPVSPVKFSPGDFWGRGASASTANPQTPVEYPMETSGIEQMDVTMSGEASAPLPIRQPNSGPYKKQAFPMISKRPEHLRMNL
Description: The ability of compounds of the invention to inhibit P70S6 kinase was determined using the protocol below.
20 mM MOPS, 1 mM EDTA, 0.01% Brij-35, 5% Glycerol, 0.1% b-mercaptoethanol, 1 mg/mL BSA
In a final reaction volume of 25 μL, p70S6K (h) (5-10 mU) is incubated with 8 mM MOPS pH 7.0, 0.2 mM EDTA, 100 μM KKRNRTLTV, 10 mM Mg acetate and [γ-33P-ATP] (specific activity approx. 500 cpm/pmol, concentration as required). The reaction is initiated by the addition of the MgATP mix. After incubation for 40 minutes at room temperature, the reaction is stopped by the addition of 5 μL of a 3% phosphoric acid solution. 10 μL of the reaction mixture is then spotted onto a P30 filtermat and washed three times for 5 minutes in 75 mM phosphoric acid and once in methanol prior to drying and scintillation counting.

[3] = test system: phosphorylation of S6 at Serine residues 240 and 244 in MCF7 cells; assay: MCF7 pS6 ELISA variant (pS240/244, 0% FBS); type: cell-based; settings: Homo sapiens, S6 Serine 240 and 244 detected, read-out: (b) MCF-7 pS6 ELISA IC50 (pS240/244 variant)
[4] = CD-1, brain, read-out: (d) Brain conc. at 3 hours
[5] = CD-1, plasma, read-out: (d) Plasma conc. at 3 hours

SMILES	concentration at 3 h [1, 4] [µM]	Kp at 3 h ([1]; CD-1, brain)	concentration at 3 h [1, 5] [µM]	IC50 (MCF-7 cells) [µM]	IC50 [2] [µM]	IC50 (p70S6K (h)) [µM]	IC50 [3] [µM]	inhibition at 0.3 µM ([2]; at 0.3 uM, read-out: (b) MCF-7 pS6 ELISA inhibition) [%]
CN(Cc1ccccc1)c1cnc2cc(-c3cn[nH]c3)ccc2n1 [Example 1]	3.65	3.8	0.97	12.2	3	0.004		
C[C@@H](Nc1cnc2cc(-c3cn[nH]c3)ccc2n1)c1ccccc1 [Example 9]	2.07	1.4	1.51	15	0.3	0.003		
Clc1cccc(CNc2cnc3cc(-c4cn[nH]c4)ccc3n2)c1 [Example 2]	1.5	1.2	1.23	15	0.4	0.025		
C[C@@H](Nc1nnc2cc(-c3cn[nH]c3)ccc2n1)c1ccccc1 [Example 19, N-[(1 R)-1-phenylethyl]-7-(1H-pyrazol-4-yl)-1,2,4-benzotriazin-3-amine hydrochloride]	2.33	2.9	0.81			0.022	4.59	
COc1cccc([C@@H](C)N(C)c2cnc3cc(-c4cn[nH]c4)ccc3n2)c1 [Example 14]	2.65	3.3	0.79	9	0.9	0.009		
CN(Cc1ccccc1)c1nc2ccc(-c3cn[nH]c3)cc2[n+]([O-])n1 [Example 10]	0.75	4.2	0.18			0.062		
CN(Cc1cccc(F)c1)c1cnc2cc(-c3cn[nH]c3)ccc2n1 [Example 7]	2.88	3.5	0.83	7	0.9	0.009		
CN(Cc1ccc(F)cc1)c1cnc2cc(-c3cn[nH]c3)ccc2n1 [Example 5]	2.48	3.3	0.76	33	3.2	0.012		
Cc1cccc([C@@H](C)Nc2cnc3cc(-c4cn[nH]c4)ccc3n2)c1 [Example 16]	3.25	1	3.34	4.2		0.018		57
COc1cccc([C@@H](C)Nc2cnc3cc(-c4cn[nH]c4)ccc3n2)c1 [Example 12]	2.4	0.5	5.05	8.4	0.8	0.007		
[O-][n+]1nc(NCc2ccccc2)nc2ccc(-c3cn[nH]c3)cc21 [Example 17]	0.21	1.3	0.16			0.032		
Fc1ccc(CNc2cnc3cc(-c4cn[nH]c4)ccc3n2)cc1F [Example 8]	0.82	1.1	0.76	24	1.4	0.026		
C[C@@H](Nc1nc2ccc(-c3cn[nH]c3)cc2[n+]([O-])n1)c1ccccc1 [Example 18, 1-oxido-N-[(1R)-1-phenylethyl]-7-(1H-pyrazol-4-yl)-1,2,4-benzotriazin-1-ium-3-amine hydrochloride]	0.99	1.8	0.56			0.012	5.04	
CCN(Cc1ccccc1)c1cnc2cc(-c3cn[nH]c3)ccc2n1 [Example 6]	2.38	4.3	0.55	28		0.033		
C[C@H](c1ccccc1)N(C)c1cnc2cc(-c3cn[nH]c3)ccc2n1 [Example 13]	2.96	4.2	0.7		1.2	0.005		
COc1cccc(CNc2cnc3cc(-c4cn[nH]c4)ccc3n2)c1 [Example 4]	1.08	0.6	1.73	2.3	0.4	0.03		
CN(Cc1ccccc1)c1nnc2cc(-c3cn[nH]c3)ccc2n1 [Example 11]	2.62	7.5	0.35			0.064		
Fc1ccc(CNc2cnc3cc(-c4cn[nH]c4)ccc3n2)cc1 [Example 3]	0.59	1.1	0.52	5.3	3.2	0.026		
